Results as given in PMC3591530 (Molecular Imaging and Biology, 2012).
Each block holds one molecule with its values, some of them ahead of it. Where a SMILES comes first, the peptide text is derived from it. [ ]: non-standard residue; d: D form. Tyr(3-I) = N[C@@H](Cc1ccc(O)c(I)c1)C(=O)O

Legend:
[1] = target: T1, extracellular domain of human PDGFRβ (Homo sapiens, UniProt P09619); format: binding; settings: pH 7.4
T1 construct: The extracellular domain of PDGFRβ was recombinantly synthesized using the Flp-In system; Fc (Fcγ from pSEC-EGP-2-Fcγ vector) (C); made in house; host or cells: Flp-In-293 human embryonic kidney cells
T1 sequence (P09619 33-532 limits assumed): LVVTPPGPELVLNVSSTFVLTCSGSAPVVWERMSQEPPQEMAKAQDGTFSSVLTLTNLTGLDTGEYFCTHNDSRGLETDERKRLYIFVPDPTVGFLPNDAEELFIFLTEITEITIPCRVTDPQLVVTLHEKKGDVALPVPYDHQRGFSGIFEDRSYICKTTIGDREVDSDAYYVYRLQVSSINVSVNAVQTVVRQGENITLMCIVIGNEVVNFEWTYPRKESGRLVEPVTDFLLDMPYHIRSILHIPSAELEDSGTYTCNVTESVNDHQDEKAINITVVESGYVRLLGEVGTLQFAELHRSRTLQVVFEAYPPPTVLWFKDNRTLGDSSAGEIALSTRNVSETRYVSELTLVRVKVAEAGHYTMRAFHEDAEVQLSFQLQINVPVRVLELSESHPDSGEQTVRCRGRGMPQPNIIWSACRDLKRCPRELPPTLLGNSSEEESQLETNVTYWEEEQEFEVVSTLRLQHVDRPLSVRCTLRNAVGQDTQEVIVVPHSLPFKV
Experimental: Binding of ^125I-labeled PDGFR-P1 was investigated on immobilized extracellular domain of human PDGFRβ, EGFR, and FGFR. The target proteins were incubated at a concentration of 25 nM in 96-well Maxisorp^TM plates (Nunc GmbH & Co. KG, Germany) for 24 h and the plates were washed thrice with 100 μl PBS pH 7.4. ^125I-labeled PDGFR-P1 was incubated with the target in 100 μl PBS pH 7.4 for 60 min. The unbound activity was removed by washing with 300 μl ice-cold PBS pH 7.4. Bound radioligand was determined through degradation with 100 μl NaOH 0.3 M and radioactivity measurement. Radioligand binding was calculated as percentage applied dose.

BxPC3 cells = format: binding, human; settings: 24 h
Experimental: (§1) Three hundred thousand BxPC3, MCF7, PDGFRβ-tr-HEK, CaIX-tr-HEK, or HEK293wt cells were cultivated in six-well plates at 37°C for 24 h. Cells were blocked with RPMI 1640 containing 1% milk powder and the medium was replaced with 1 ml fresh medium (without FCS) containing 0.5–1.5 × 10^6 cpm ^125I-labeled peptide. After incubation at 37°C for various time periods (10 min to 6 h), the medium was removed and the cells were washed with PBS. Subsequently, cell lysis was performed with 0.5 ml NaOH 0.3 M and the bound radioactivity was measured with a γ-counter and calculated as percentage applied dose per 10^6 cells. Specific binding was determined through co-incubation of the radioligand with the unlabeled PDGFR-P1 peptide at various concentrations (10^−4 to 10^−10 M). A dodecapeptide identified with phage display by panning against the extracellular domain of human carbonic anhydrase IX (CaIX-P1) as well as a derivative of a dodecapeptide identified with phage display on prostate carcinoma cells (DUP-1–9) were used as negative control competitors.

PDGFR-tr-HEK cells = assay: In vitro binding kinetics on PDGFRβ-transfected HEK293 cells; parameters: species or system human; settings: kinetic studies, vs HEK293wt and CaIX-tr-HEK cells, 37°C, serum-free medium, p < 0.05
Experimental: as §1

Stability in human serum = format: in vitro ADME; settings: 37°C, HPLC analysis
Experimental: The stability of PDGFR-P1 was investigated in human serum. ^125I-labeled peptide was incubated at 37°C in human serum. At time points varying from 5 min to 20 h, aliquots were taken, mixed with equal volume acetonitrile, to precipitate serum proteins and centrifuged for 5 min at 13,000 rpm. Serum degradation products were determined by HPLC analysis of the supernatant.

in vivo = assay: in vivo; parameters: species or system Balb/c nu/nu mice; settings: female, Balb/c nu/nu, mouse, iv, 1 MBq, total radioactivity; for tissue to tissue ratio at 0.25 h: Tumor-to-organ ratio
Experimental: (§2) Organ distribution studies were carried out in 9-week-old female Balb/c nu/nu mice (Charles River WIGA), carrying subcutaneously transplanted human pancreatic cancer BxPC3 tumors. Tumor implantation was performed through injection of a cell suspension (4 × 10^6 cells in OPTI-MEM) (Gibco, Invitrogen Life Technologies) into the mouse trunk. After the tumors were grown to a size of approximately 1.0 cm^3, 1 MBq of ^131I-labeled PDGFR-P1 was injected into the tail vein, and at 15 min p.i. the animals were euthanized. Tumor, blood, and healthy tissues were removed, weighed, and measured with a γ-counter (LB […]; Berthold Technologies). Organ uptake calculation was performed as percentage injected dose per gram tissue (% ID/g). To avoid bias due to blood background radioactivity, uptake in blood-free organs was determined with perfusion experiments. Within these experiments, blood was removed through a catheter in the ascending aorta of the anesthesized animal and perfusion with approximately 25 ml 0.9% NaCl was performed via a cut in the animal liver. After perfusion, samples of tumor and organs were removed and measured as described. All animal experiments were carried out in conformity with the German and European laws for animal protection.

BxPC3 tumors = assay: in vivo; parameters: species or system Balb/c nu/nu mice; settings: female, Balb/c nu/nu, mouse, iv, 1 MBq, 0.25 h
Experimental: as §2

human serum = settings: 37°C, up to 20 h

Binding of the radioligand (percentage applied dose) [1]: about 18%
IC50 (BxPC3 cells): 1400 nM
Molecule: CC[C@H](C)[C@H](N)C(=O)N1CCC[C@H]1C(=O)N[C@@H](CC(C)C)C(=O)N1CCC[C@H]1C(=O)N1CCC[C@H]1C(=O)N1CCC[C@H]1C(=O)N[C@@H](CO)C(=O)N[C@@H](CCCNC(=N)N)C(=O)N1CCC[C@H]1C(=O)N[C@@H](Cc1ccccc1)C(=O)N[C@@H](Cc1ccccc1)C(=O)N[C@@H](CCCCN)C(=O)N[C@@H](Cc1ccc(O)cc1)C(N)=O [PDGFR-P1] (H-IPLPPPSRPFFKY-NH2)

half-life (Stability in human serum; aliquots 5 min to 20 h, acetonitrile precipitation): 4 min
Molecule: CC[C@H](C)[C@H](N)C(=O)N1CCC[C@H]1C(=O)N[C@@H](CC(C)C)C(=O)N1CCC[C@H]1C(=O)N1CCC[C@H]1C(=O)N1CCC[C@H]1C(=O)N[C@@H](CO)C(=O)N[C@@H](CCCNC(=N)N)C(=O)N1CCC[C@H]1C(=O)N[C@@H](Cc1ccccc1)C(=O)N[C@@H](Cc1ccccc1)C(=O)N[C@@H](CCCCN)C(=O)N[C@@H](Cc1ccc(O)c(I)c1)C(N)=O [^125I-labeled PDGFR-P1] (H-IPLPPPSRPFFK[Tyr(3-I)]-NH2; N-terminus assumed)
Binding on PDGFR-tr-HEK cells compared to negative controls (PDGFR-tr-HEK cells): significantly increased binding
Degradation product analysis (Stability in human serum): cleavage of the C-terminal tyrosine over time

tissue uptake at 0.25 h (in vivo; Activity concentration in blood): 5.4 %ID/g
tissue uptake at 0.25 h (in vivo; Activity concentration in kidney): 10.6 %ID/g
tissue uptake at 0.25 h (in vivo; Tumor accumulation): 3.2 %ID/g
tissue to tissue ratio at 0.25 h (in vivo; Brain): 8.7
tissue to tissue ratio at 0.25 h (in vivo; Intestinum): 1.43
tissue to tissue ratio at 0.25 h (in vivo; Kidney): 0.299
tissue to tissue ratio at 0.25 h (in vivo; Muscle): 2.15
tissue to tissue ratio at 0.25 h (in vivo; Spleen): 1.42
Tumor-to-organ ratio, Brain (BxPC3 tumors): 9.083
Tumor-to-organ ratio, Intestinum (BxPC3 tumors): 1.321
Tumor-to-organ ratio, Kidney (BxPC3 tumors): 0.379
Tumor-to-organ ratio, Muscle (BxPC3 tumors): 2.530
Tumor-to-organ ratio, Spleen (BxPC3 tumors): 1.601
Molecule: CC[C@H](C)[C@H](N)C(=O)N1CCC[C@H]1C(=O)N[C@@H](CC(C)C)C(=O)N1CCC[C@H]1C(=O)N1CCC[C@H]1C(=O)N1CCC[C@H]1C(=O)N[C@@H](CO)C(=O)N[C@@H](CCCNC(=N)N)C(=O)N1CCC[C@H]1C(=O)N[C@@H](Cc1ccccc1)C(=O)N[C@@H](Cc1ccccc1)C(=O)N[C@@H](CCCCN)C(=O)N[C@@H](Cc1ccc(O)c(I)c1)C(N)=O [^131I-labeled PDGFR-P1] (H-IPLPPPSRPFFK[Tyr(3-I)]-NH2; N-terminus assumed)

cleaved bond (human serum): K-Y
fragment found (human serum): Y-OH
Molecule: IPLPPPSRPFFKY-NH2
